Laboratory results as given in US20260021103A1, “IKZF2 AND CK1-ALPHA DEGRADING COMPOUNDS AND USES THEREOF” (President and Fellows of Harvard College, priority 2022, published 2026).

Legend:
IKZF1 = biological target: T1, IKZF1 (Homo sapiens, UniProt Q13422+Q96SW2); experiment: Flow cytometry for measuring degradation, HEK293T GFP-POI reporter cells (IKZF1); format: cell-based; conditions: 24 h, HEK293T GFP reporter
T1 construct: expressed in transfected cells; host or cells: HEK293T (lentiviral transduction, puromycin selection, FACS sorting)
T1 sequence (Q13422 whole entry): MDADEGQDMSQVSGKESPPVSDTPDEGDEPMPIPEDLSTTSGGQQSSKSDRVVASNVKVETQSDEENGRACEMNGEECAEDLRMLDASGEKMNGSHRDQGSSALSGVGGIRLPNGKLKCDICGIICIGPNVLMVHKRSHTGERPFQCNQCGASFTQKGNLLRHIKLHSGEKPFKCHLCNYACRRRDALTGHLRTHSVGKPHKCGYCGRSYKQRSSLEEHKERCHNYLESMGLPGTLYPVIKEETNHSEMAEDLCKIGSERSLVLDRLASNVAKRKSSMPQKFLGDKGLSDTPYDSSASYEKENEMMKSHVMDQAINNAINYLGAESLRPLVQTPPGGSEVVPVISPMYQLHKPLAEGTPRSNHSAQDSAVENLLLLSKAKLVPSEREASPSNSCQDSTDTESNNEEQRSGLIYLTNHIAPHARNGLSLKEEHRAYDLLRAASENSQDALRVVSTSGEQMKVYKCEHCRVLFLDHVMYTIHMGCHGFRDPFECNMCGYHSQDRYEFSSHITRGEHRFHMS
T1 sequence (Q96SW2 whole entry): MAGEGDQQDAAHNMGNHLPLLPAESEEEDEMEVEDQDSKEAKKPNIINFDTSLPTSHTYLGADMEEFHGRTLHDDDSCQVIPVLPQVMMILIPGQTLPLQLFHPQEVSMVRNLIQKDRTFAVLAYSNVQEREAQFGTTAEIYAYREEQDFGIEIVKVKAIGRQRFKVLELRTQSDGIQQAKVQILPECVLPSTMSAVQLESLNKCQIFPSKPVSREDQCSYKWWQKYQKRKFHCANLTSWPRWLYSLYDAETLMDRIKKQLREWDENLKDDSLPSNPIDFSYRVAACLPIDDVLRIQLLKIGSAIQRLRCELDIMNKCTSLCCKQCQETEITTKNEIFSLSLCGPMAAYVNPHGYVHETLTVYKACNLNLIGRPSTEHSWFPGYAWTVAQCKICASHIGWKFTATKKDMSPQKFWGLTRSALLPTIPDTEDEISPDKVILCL
T1 sequence (Q16531 whole entry partner): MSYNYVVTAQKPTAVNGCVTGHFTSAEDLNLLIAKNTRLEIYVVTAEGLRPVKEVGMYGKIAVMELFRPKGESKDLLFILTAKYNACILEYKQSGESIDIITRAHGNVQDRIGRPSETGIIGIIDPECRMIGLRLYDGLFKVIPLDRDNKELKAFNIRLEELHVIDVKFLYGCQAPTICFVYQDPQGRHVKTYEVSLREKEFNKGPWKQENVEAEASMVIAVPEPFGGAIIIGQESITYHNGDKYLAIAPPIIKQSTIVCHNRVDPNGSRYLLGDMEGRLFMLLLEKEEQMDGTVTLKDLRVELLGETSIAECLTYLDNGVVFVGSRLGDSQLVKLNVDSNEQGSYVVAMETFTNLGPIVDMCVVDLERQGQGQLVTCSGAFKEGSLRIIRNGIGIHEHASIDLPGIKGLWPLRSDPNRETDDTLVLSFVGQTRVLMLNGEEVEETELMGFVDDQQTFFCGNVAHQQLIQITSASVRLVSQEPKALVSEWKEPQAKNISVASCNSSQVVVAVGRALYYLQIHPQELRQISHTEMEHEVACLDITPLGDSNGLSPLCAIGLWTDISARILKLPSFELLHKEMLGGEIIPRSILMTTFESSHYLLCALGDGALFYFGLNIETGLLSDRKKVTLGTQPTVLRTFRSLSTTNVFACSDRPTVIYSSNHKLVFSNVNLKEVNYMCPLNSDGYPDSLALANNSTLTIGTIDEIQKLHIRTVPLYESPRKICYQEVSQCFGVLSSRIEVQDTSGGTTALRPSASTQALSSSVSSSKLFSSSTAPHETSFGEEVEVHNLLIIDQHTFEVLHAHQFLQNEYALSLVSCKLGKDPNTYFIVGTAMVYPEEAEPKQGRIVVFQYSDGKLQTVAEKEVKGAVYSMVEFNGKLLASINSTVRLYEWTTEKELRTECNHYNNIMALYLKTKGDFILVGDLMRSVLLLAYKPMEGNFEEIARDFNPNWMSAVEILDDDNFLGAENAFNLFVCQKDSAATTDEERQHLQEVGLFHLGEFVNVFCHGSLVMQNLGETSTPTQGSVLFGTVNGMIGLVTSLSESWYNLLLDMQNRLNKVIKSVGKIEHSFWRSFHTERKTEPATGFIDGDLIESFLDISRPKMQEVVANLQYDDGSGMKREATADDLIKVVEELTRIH

IKZF2 = biological target: T2, IKZF2 (Homo sapiens, UniProt Q96SW2+Q9UKS7); experiment: Flow cytometry for measuring degradation, HEK293T GFP-POI reporter cells (IKZF2); format: cell-based
T2 construct: expressed in transfected cells; host or cells: HEK293T (lentiviral transduction, puromycin selection, FACS sorting)
T2 sequence (Q9UKS7 whole entry): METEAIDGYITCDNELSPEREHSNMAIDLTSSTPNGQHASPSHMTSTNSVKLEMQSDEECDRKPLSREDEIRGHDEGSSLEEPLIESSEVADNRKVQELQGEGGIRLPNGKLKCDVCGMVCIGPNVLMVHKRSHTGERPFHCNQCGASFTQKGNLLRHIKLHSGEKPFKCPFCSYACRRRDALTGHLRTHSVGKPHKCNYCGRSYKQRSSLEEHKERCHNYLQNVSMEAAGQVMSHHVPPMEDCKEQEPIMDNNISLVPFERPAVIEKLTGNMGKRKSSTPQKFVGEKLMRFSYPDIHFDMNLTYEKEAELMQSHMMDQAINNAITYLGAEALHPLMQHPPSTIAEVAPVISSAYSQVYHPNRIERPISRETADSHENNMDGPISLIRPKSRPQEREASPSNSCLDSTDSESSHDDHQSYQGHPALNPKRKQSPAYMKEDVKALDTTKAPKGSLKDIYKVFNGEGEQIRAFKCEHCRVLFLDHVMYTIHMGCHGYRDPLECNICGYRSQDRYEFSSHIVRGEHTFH
T2 sequence (Q96SW2 whole entry): as the sequence (Q96SW2 whole entry) above
T2 sequence (Q16531 whole entry partner): as the sequence (Q16531 whole entry partner) above

CK1α = biological target: T3, CK1α (Homo sapiens, UniProt P48729+Q96SW2); experiment: Flow cytometry for measuring degradation, HEK293T GFP-POI reporter cells (CK1α); format: cell-based
T3 construct: expressed in transfected cells; host or cells: HEK293T (lentiviral transduction, puromycin selection, FACS sorting)
T3 sequence (P48729 whole entry): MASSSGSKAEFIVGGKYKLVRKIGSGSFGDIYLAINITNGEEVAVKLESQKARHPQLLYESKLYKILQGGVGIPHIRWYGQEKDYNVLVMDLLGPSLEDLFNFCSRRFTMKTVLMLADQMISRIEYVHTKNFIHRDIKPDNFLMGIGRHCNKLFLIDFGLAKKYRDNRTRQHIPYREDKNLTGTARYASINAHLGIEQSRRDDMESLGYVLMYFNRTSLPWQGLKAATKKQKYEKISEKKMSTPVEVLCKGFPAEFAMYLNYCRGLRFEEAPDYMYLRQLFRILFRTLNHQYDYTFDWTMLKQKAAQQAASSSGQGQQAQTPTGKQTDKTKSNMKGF
T3 sequence (Q96SW2 whole entry): as the sequence (Q96SW2 whole entry) above
T3 sequence (Q16531 whole entry partner): as the sequence (Q16531 whole entry partner) above

[1] = In vitro solubility in DMSO; format: physicochemical; conditions: DMSO
[2] = tested on: endometrioid ovarian cancer cell line A2780; experiment: 5-day MTT assay in A2780 cells; format: cell-based; conditions: Homo sapiens, 120 h; A2780, 5-day MTT assay
Procedure: (§1) Viability Assay: 10,000 cells (e.g., MOLM-13 cells, MLL-AF9 leukemic cells or normal BM cells) were plated onto flat-bottom 96-well plates in media with increasing concentration of compound up to […]. […] For measuring viability, Cell-Titer Glo kit (Promega) or MTT kit was used following manufacturer's instructions. For Cell-Titer Glo assay, cells were cooled to room temperature for 20-30 min, 100 μL of the cultured cells were transferred to opaque-white bottom 96-well plates and mixed with 100 μL of Cell-Titer Glo reagent. The mixture was incubated for 15 min at room temperature and read using a Synergy H1 Hybrid reader (BioTek) for luminescence. Data was normalized as percentage viability and graphed by non-linear regression curves in Graph Pad PRISM 7.0.

DLBCL cell line OCI-LY3 = experiment: 5-day MTT assay in OCI-LY3 cells; format: cell-based; conditions: Homo sapiens, 120 h; OCI-LY3, 5-day MTT assay
Procedure: as §1

[3] = tested on: small cell lung cancer cell line NCI-H1048; experiment: 5-day MTT assay in NCI-H1048 cells; format: cell-based; conditions: NCI-H1048, 5-day MTT assay
Procedure: as §1

MOLM-13 cells [4] = experiment: Cell viability assay in MOLM-13 cells; format: cell-based; conditions: Homo sapiens, read-out: IC50 (cytotoxicity)
Procedure: Viability Assay: 10,000 cells (e.g., MOLM-13 cells, MLL-AF9 leukemic cells or normal BM cells) were plated onto flat-bottom 96-well plates in media with increasing concentration of compound up to 100 µM. Cells were cultured for 72 h at 37° C. in a 5% CO2 incubator. For measuring viability, Cell-Titer Glo kit (Promega) or MTT kit was used following manufacturer's instructions. For Cell-Titer Glo assay, cells were cooled to room temperature for 20-30 min, 100 μL of the cultured cells were transferred to opaque-white bottom 96-well plates and mixed with 100 μL of Cell-Titer Glo reagent. The mixture was incubated for 15 min at room temperature and read using a Synergy H1 Hybrid reader (BioTek) for luminescence. Data was normalized as percentage viability and graphed by non-linear regression curves in Graph Pad PRISM 7.0.

[5] = In vitro metabolic stability; format: in vitro ADME; conditions: read-out: in vitro metabolic stability t1/2
[6] = Pharmacokinetics, plasma concentration in mice; conditions: male, CD1, mouse, ip, single intraperitoneal injection at 5 mg/kg, read-out: in vivo half-life t1/2 (converted)
Procedure: (§2) In vivo drug administration in MLL-AF9 and PDX mouse model: A total of 250,000 of MLL-AF9 BM secondary mouse leukemia cells were injected retroorbitally into 6-8 weeks-old female C57BL/6 recipient mice that has been sublethally irradiated at 450 cGy. For AML PDX model, 1 million PDX cells were transplanted by intravenous injection into 8-10 weeks old female NSG mice that had been sublethally irradiated at 200 rads 24 hr before transplant. […] DEG-77 was treated at 223 mg/kg in DMSO in 50 ul volume. Mice weight was monitored every day to check for toxicity. Mice were sacrificed when moribund, and organ weights were measured for disease burden. Spleen and bone marrow cells were isolated and processed for western blot analysis. All animal studies were performed on animal protocols approved by the Institutional Animal Care and Use Committee (IACUC) at Memorial Sloan Kettering Cancer Center. […] Plasma was extracted from each mouse after indicated time and DEG-35 in plasma was measured using HPLC. For examining the toxicity of DEG-77 in the hematopoietic system of Crbn^1391V mice, four rounds of DMSO or 223 mg/kg DEG-77 was treated in 8-12 weeks old female Crbn^1391V mice. Mice were injected once a week and were sacrificed 4 weeks later for blood analysis using the Element HT5 Hematology Analyzer (HESKA) and analysis of the hematopoietic cells by flow cytometry.

MLL-AF9 Crbn^1391V cells [7] = experiment: Survival of BL6 mice transplanted with MLL-AF9 Crbn^1391V cells; format: in vivo; conditions: 223 mg/kg once per week
Procedure: Generation of MLL-AF9 Crbn^1391V leukemic cells: Lin-Sca+ Kit+ (LSK) cells were isolated from bone marrow cells of wildtype or Crbn^1391V mice that were 6 to 8 weeks old. Briefly, bone marrow cells were enriched for c-Kit positive cells by incubating with CD117/c-Kit microbeads and then processed through the autoMACS Pro Separator (Miltenyi Biotec), following the manufacturer's instructions. CKit enriched cells were stained with Lineage antibody cocktail (CD3, CD4, CD8, Gr1, B220, CD19, TER119 conjugated with PeCy5), Scal-Pac Blue, CD34-FITC, SLAM-APC, CD48-PE, and c-KIT-APC-Cy7. After staining, cells were sorted for LSK cells using a BD FACS Aria II instrument. Sorted LSK cells were incubated overnight in Stemspan SFEM medium (Stem Cell Technologies) with 10 ng/ml IL-3, 10 ng/ml IL-6, 50 ng/ml SCF. 10 ng/ml thrombopoietin (TPO), and 20 ng/ml FLT-3 ligand. […]
In vivo drug administration in MLL-AF9 and PDX mouse model: A total of 250,000 of MLL-AF9 BM secondary mouse leukemia cells were injected retroorbitally into 6-8 weeks-old female C57BL/6 recipient mice that has been sublethally irradiated at 450 cGy. […] Mice weight was monitored every day to check for toxicity. Mice were sacrificed when moribund, and organ weights were measured for disease burden. […] Plasma was extracted from each mouse after indicated time and DEG-35 in plasma was measured using HPLC. […]

AML PDX cells = experiment: AML PDX model in NSG mice; format: in vivo
Procedure: as §2

GSPT1 [8] = biological target: T4, GSPT1 (Homo sapiens, UniProt P15170+Q96SW2); experiment: Western blot of NCI-H1048 cells for GSPT1; format: cell-based; conditions: 24 h
T4 sequence (P15170 whole entry): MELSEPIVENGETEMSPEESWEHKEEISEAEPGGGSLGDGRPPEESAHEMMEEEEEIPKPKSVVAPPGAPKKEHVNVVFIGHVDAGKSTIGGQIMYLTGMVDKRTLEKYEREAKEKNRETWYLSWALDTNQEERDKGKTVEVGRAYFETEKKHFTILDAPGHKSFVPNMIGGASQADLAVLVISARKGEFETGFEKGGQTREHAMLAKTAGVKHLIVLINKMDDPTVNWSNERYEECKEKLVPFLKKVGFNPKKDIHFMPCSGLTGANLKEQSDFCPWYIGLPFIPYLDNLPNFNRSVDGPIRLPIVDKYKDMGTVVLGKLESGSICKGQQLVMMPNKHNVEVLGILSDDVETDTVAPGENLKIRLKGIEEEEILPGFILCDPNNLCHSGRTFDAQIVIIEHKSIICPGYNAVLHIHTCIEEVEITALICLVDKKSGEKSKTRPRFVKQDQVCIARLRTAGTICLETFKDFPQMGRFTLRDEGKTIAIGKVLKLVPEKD
T4 sequence (Q96SW2 whole entry): as the sequence (Q96SW2 whole entry) above
T4 sequence (Q16531 whole entry partner): as the sequence (Q16531 whole entry partner) above

[9] = Toxicity in hematopoietic system of Crbn^1391V mice; format: in vivo; conditions: four rounds, 223 mg/kg weekly
Procedure: as §2

MOLM-13 cells [10] = experiment: Survival of NSG mice transplanted with MOLM-13 cells; format: in vivo; conditions: MOLM-13 transplanted mice, 223 mg/kg weekly
MLL-AF9 Crbn^1391V cells [11] = experiment: Survival of Crbn^1391V mice transplanted with MLL-AF9 Crbn^1391V cells; format: in vivo; conditions: 223 mg/kg weekly
GSPT1 [12] = biological target: T4, GSPT1; experiment: Flow cytometry for measuring degradation, HEK293T GFP-POI reporter cells (GSPT1); format: cell-based; set-up: expressed in transfected cells; host or cells: HEK293T; conditions: 24 h, HEK293T GFP reporter
[13] = 100 nM, 24 h, HEK293T GFP reporter
[14] = 1 μM, 24 h, HEK293T GFP reporter

With `COc1cccc2c1OCC(C(=O)Nc1ccc3c(c1)CN(C1CCC(=O)NC1=O)C3=O)=C2` (centres unmarked) [DEG-77, N-(2-(2,6-dioxopiperidin-3-yl)-1-oxoisoindolin-5-yl)-8-methoxy-2H-chromene-3-carboxamide] the “IKZF1% degradation at 100 nM” value (IKZF1; 100 nM) was 10.7 ± 1.1%, the “IKZF1% degradation at 1 μM” value (IKZF1; 1 μM) was 29 ± 0.9% and the DC50 (IKZF2) was 15.3 nM. The “IKZF2% degradation at 100 nM” value (IKZF2; [13]) was 82.3 ± 0.6%, the “IKZF2% degradation at 1 μM” value (IKZF2; [14]) was 94.4 ± 0.1% and the “CK1α % degradation at 100 nM” value (CK1α; [13]) was 68.6 ± 1%. The “CK1α % degradation at 1 μM” value (CK1α; [14]) was 72.7 ± 0.8%, the DC50 (CK1α; read-out: DC50 CK1α) was 10 nM and the “increase in solubility in DMSO compared to DEG-35” value [1] was 10 fold. The EC50 [2] was 27 nM, the EC50 (DLBCL cell line OCI-LY3) was 14 nM and the “sensitivity of NCI-H1048 cells (in words)” value [3] was “selectively sensitive to DEG-35 and not DEG-77”. For the same compound, the IC50 (MOLM-13 cells [4]) was 4 nM, the half-life [5] was > 6 h and the half-life [6] was 8 h. The “total body weight (in words)” value (MLL-AF9 Crbn^1391V cells [7]) was “without total body weight loss”, the survival (MLL-AF9 Crbn^1391V cells [7]; vehicle treated mice 35 days) was 66 days and the “survival (in words)” value (AML PDX cells; PDX AML model, weekly from 4 weeks post-transplant, 223 mg/kg) was “significant extension of survival”. The “engraftment of PDX cells in the bone marrow” value (AML PDX cells; after a single injection, >85% prior to treatment) was “around 40%”, the “GSPT1 degradation by Western blot (in words)” value (GSPT1 [8]) was “did not affect protein levels” and the “WBC counts (in words)” value [9] was “modest reduction of WBC counts”. The “platelets and RBC counts (in words)” value [9] was “remained unchanged”, the “survival (in words)” value (MOLM-13 cells [10]) was “increased survival” and the “survival (in words)” value (MLL-AF9 Crbn^1391V cells [11]) was “significant increase in survival”. For the same compound, the “GSPT1% degradation at 100 nM” value (GSPT1 [12]; 100 nM) was 3.7 ± 1.3% and the “GSPT1% degradation at 1 μM” value (GSPT1 [12]; 1 μM) was 2.6 ± 1%.
